In patent publication US8026276B2, “Parenteral CCI-779 formulations containing cosolvents, an antioxidant, and a surfactant” (Wyeth LLC, priority 2002, dated 2011):

Legend:
[1] = system: human tumor xenografts; conditions: nude mice; cited from earlier work
[2] = system: histologically diverse tumor cells; conditions: cited from earlier work
[3] = Solubility of CCI-779; type: physicochemical
Method: A primary obstacle towards the formulation of CCI-779 as a parenteral dosage form is the poor aqueous solubility, which is less than 1 μg/ml. The drug is a non-electrolyte and approaches such as pH adjustment and salt formation are not useful for improving the aqueous solubility. […] These include ethanol, propylene glycol, polyethylene glycol and dimethylacetamide. Two problems or limitations exist with respect to the formulation of CCI-779 in these organic solvents. First, chemical instability has been noted in virtually all solvents. The instability can be due to oxidative degradation of CCI-779 or to cleavage of a lactone bond, resulting in the formation of the ring opened seco-CCI-779. Second, formulations of CCI-779 in organic solvents will precipitate upon dilution with aqueous infusion solutions, such as 0.9% Sodium Chloride Injection or 5% Dextrose Injections, or with blood. This is a primary limitation to the use of water miscible organic solvents, also referred to as cosolvents, when used as vehicles for highly water-insoluble compounds.

[4] = Stability of CCI-779 in solution with chelating agent; type: physicochemical; conditions: citric acid at less than 0.01% w/v
Excerpt: In some embodiments, components with chelating activity are included in the formulations of the invention as the sole “antioxidant component”. Typically, such metal-binding components, when acting as chelating agents are used in the lower end of the range of concentrations for the antioxidant component provided herein. […] Additionally, such chelating agents may be used in combination with other antioxidants as part of the antioxidant component of the invention. For example, an acceptable formulation may contain both citric acid and d,l-α-tocopherol. Optimal concentrations for the selected antioxidant(s) can be readily determined by one of skill in the art, based upon the information provided herein.

- solubility in water-miscible organic solvents ([3]; ethanol, propylene glycol, polyethylene glycol, dimethylacetamide): soluble
- solubility in pharmaceutically acceptable vegetable oils ([3]; vegetable oils): poor solubility
- solubility ([3]; water, read-out: aqueous solubility): < 1 µg/mL
- effect of citric acid on stability of CCI-779 [4]: enhanced the stability
Structure (SMILES): CO[C@H]1C[C@@H]2CC[C@@H](C)[C@@](O)(O2)C(=O)C(=O)N2CCCC[C@H]2C(=O)O[C@H]([C@H](C)C[C@@H]2CC[C@@H](OC(=O)C(C)(CO)CO)[C@H](OC)C2)CC(=O)[C@H](C)/C=C(\C)[C@@H](O)[C@@H](OC)C(=O)[C@H](C)C[C@H](C)/C=C/C=C/C=C/1C [CCI-779, rapamycin 42-ester with 3-hydroxy-2-(hydroxymethyl)-2-methylpropionic acid]
- activity against human tumor xenografts [1]: has activity
- growth of tumor cells in vitro [2]: inhibit the growth
